Values quoted from earlier work as cited in patent publication US20100008923A1, “Organic Compounds” (Novartis AG, priority 2006, published 2010).

Legend:
[1] = for Potential side effects at upper limits: at upper limit of daily intake
HDAC = conditions: Kwon et al. (1998)

Upper limit of daily intake [1] | Compound | Potential side effects at upper limits [1] | HDAC inhibition (HDAC)
Above 3000 mg | O=C(O)c1cccnc1 [B3, nicotinic acid] | Liver problems | 
Above 100 mg | Cc1ncc(CO)c(CO)c1O [B6, pyridoxine] |  | 
 | Nc1nc2ncc(CNc3ccc(C(=O)N[C@@H](CCC(=O)O)C(=O)O)cc3)nc2c(=O)[nH]1 [B9, folic acid] | No known | 
 | cyanocobalamin [B12] | No known | 
 | depudecin |  | inhibit HDAC at micromolar concentrations
